According to PMC10999543, “Identification of kinase modulators as host-directed therapeutics against intracellular methicillin-resistant Staphylococcus aureus” (Frontiers in Cellular and Infection Microbiology, 2024):
Where two headings read alike, the source gives them in different places.

Assays:
HeLa cells = assay: Compound screen by flow cytometry: HeLa cell count as surrogate readout of cell viability (z-scoreHeLa); assay type: cell-based, human
Method: (§1) The cells were resuspended in cell culture medium without antibiotics, seeded with 10,000 cells/well into Costar flat-bottom 96-well plates (Corning, Amsterdam, the Netherlands), and were incubated overnight at 37°C/5% CO2. The next day, the bacteria were centrifuged at ≥1800 g for 15 min and resuspended in cold PBS + 5 mM ethylenediaminetetraacetic acid (EDTA). The number of CFUs present in the bacterial suspension was estimated from the optical density at 600 nm (OD600) by assuming 8x10^8 CFUs to be present in a bacterial suspension with OD600 = 1, based on prior titrations. The bacterial suspension was diluted in cell culture medium without antibiotics and added to the cells. Accuracy of the multiplicity of infection (MOI) was validated by plating serial dilutions of the MRSA inoculums on Difco TS agar plates (BD Biosciences). The calculated mean MOI throughout all experiments was 6.8 ± 4.6 (mean ± SD). Infected cells were centrifuged for 3 min at 150 g and incubated for 1 hour at 37°C/5% CO2. Next, the cells were incubated with fresh cell culture medium supplemented with 30 µg/ml gentamicin sulphate (Lonza BioWhittaker, Basel, Switzerland) for 15 min at 37°C/5% CO2 to kill residual extracellular bacteria. Infected cells were incubated overnight at 37°C/5% CO2 in cell culture medium in the presence of kinase inhibitors and 5 µg/ml gentamicin sulphate-containing medium to prevent the growth of extracellular bacteria. The solvent of the compounds, DMSO, was used at equal % v/v as a negative control. For the screen, each compound was tested in triplicate, on separate cell culture plates, resulting in triplicate values for each kinase inhibitor.
(§2) HeLa cells were harvested by trypsinization and fixed with 1% paraformaldehyde. Samples were measured on a FACSLyric with HTS extension (BD Biosciences). Flow cytometry data were analysed using FlowJo version 10 (TreeStar, Ashland, OR, USA). HeLa cells positive for GFP were gated to calculate the percentage of MRSA-infected cells. The cell count was used as surrogate readout of cell viability.
To minimize the possibility that the presence of extreme values on a plate affected the z-scores, raw values that deviated two-fold from the negative controls were excluded when calculating plate means and standard deviations as used in the aforementioned formula. Compounds were considered a “hit” when z-scoreMRSA+ ≤ -2 and z-scoreHeLa ≥ -3 for cell count. In cases where compounds were screened twice, the average values were used to select hit compounds.

intracellular MRSA = assay type: cell-based, Staphylococcus aureus; settings: for %GFP+ rep 1 / z-scoreMRSA+ rep 1: replicate 1; for %GFP+ rep 2 / z-scoreMRSA+ rep 2: replicate 2; for %GFP+ rep 3 / z-scoreMRSA+ rep 3: replicate 3; for z-scoreMRSA+ mean: mean of 3 replicates
Method: as §1, §2
To identify potential “hit” compounds, the flow cytometry data were used to calculate standard z-scores using z = (x-μ)/σ – zneg, where x is total event count or the percent of GFP-positive cells from a single well, μ is the mean from wells of the plate, σ is the standard deviation of the plate and zneg is the mean z-score of the negative control of the plate (i.e., DMSO) ([Korbee et al., 2018]). To minimize the possibility that the presence of extreme values on a plate affected the z-scores, raw values that deviated two-fold from the negative controls were excluded when calculating plate means and standard deviations as used in the aforementioned formula. Compounds were considered a “hit” when z-scoreMRSA+ ≤ -2 and z-scoreHeLa ≥ -3 for cell count. In cases where compounds were screened twice, the average values were used to select hit compounds.

[1] = PKIS compound screen raw data, MRSA-infected HeLa cells
[2] = PKIS compound screen, MRSA-infected HeLa cells
[3] = PKIS compound screen, Yes/No call (effect without cell death)
[4] = PKIS compound screen, Yes/No call on z-scoreMRSA+
[5] = PKIS compound screen raw data, HeLa cell count, replicate 1
[6] = PKIS compound screen raw data, HeLa cell count, replicate 2
[7] = PKIS compound screen raw data, HeLa cell count, replicate 3
[8] = PKIS compound screen, HeLa cell count, mean of 3 replicates
[9] = PKIS compound screen, HeLa cell count, replicate 1
[10] = PKIS compound screen, HeLa cell count, replicate 2
[11] = PKIS compound screen, HeLa cell count, replicate 3
[12] = PKIS compound screen, Yes/No call on z-scoreHeLa
[13] = compound screen, HeLa cell count, mean of 3 replicates
[14] = compound screen, HeLa cell count, replicate 1
[15] = compound screen, HeLa cell count, replicate 2
[16] = compound screen, HeLa cell count, replicate 3
[17] = Yes/No: effect without cell death
[18] = compound screen, MRSA-infected HeLa cells
[19] = PKIS compound screen, Yes/No call
[20] = PKIS compounds raw data, replicate 1, HeLa cell count
[21] = PKIS compounds raw data, replicate 2, HeLa cell count
[22] = PKIS compounds raw data, replicate 3, HeLa cell count
[23] = PKIS compounds raw data, MRSA-infected HeLa cells

| Compound | %GFP+ rep 1 (intracellular MRSA; [1]) | %GFP+ rep 2 (intracellular MRSA; [1]) | %GFP+ rep 3 (intracellular MRSA; [1]) | z-scoreMRSA+ mean (intracellular MRSA; [2]) | z-scoreMRSA+ rep 1 (intracellular MRSA; [2]) | z-scoreMRSA+ rep 2 (intracellular MRSA; [2]) | z-scoreMRSA+ rep 3 (intracellular MRSA; [2]) | hit (intracellular MRSA; [3]) | effect (intracellular MRSA; [4]) | cell count rep 1 (HeLa cells; [5]) | cell count rep 2 (HeLa cells; [6]) | cell count rep 3 (HeLa cells; [7]) | z-scoreHeLa mean (HeLa cells; [8]) | z-scoreHeLa rep 1 (HeLa cells; [9]) | z-scoreHeLa rep 2 (HeLa cells; [10]) | z-scoreHeLa rep 3 (HeLa cells; [11]) | cell death (HeLa cells; [12]) | cell death (HeLa cells; Yes/No call from z-scoreHeLa) | z-scoreHeLa mean (HeLa cells; [13]) | z-scoreHeLa rep 1 (HeLa cells; [14]) | also measured |
| --- | --- | --- | --- | --- | --- | --- | --- | --- | --- | --- | --- | --- | --- | --- | --- | --- | --- | --- | --- | --- | --- |
| SB-739245-AC | 12.9% | 15.6% | 16.3% | -1.17 | -1.57 | -0.88 | -1.06 | No | No | – | – | – | – | – | – | – | – | – | – | – | cell count rep 1 (HeLa cells): 23497; cell count rep 2 (HeLa cells): 32010; cell count rep 3 (HeLa cells): 40050; cell death (HeLa cells): No; z-scoreHeLa mean (HeLa cells): -0.0274; z-scoreHeLa rep 1 (HeLa cells): 0.51; z-scoreHeLa rep 2 (HeLa cells): -0.52; z-scoreHeLa rep 3 (HeLa cells): -0.0761 |
| O=C(O[C@H]1CN[C@H](C#Cc2cc3ncnc(Nc4ccc5c(cnn5Cc5ccccc5)c4)c3s2)C1)N1CCOCC1 [GSK200398A] | 12.7% | 13.5% | 14.0% | -1.64 | -1.64 | -1.51 | -1.76 | No | No | 22424 | 29797 | 30147 | -0.74 | 0.35 | -0.93 | -1.65 | No | – | – | – | – |
| Cc1cccc2c1NC(=O)C2=NNc1ccc(S(N)(=O)=O)cc1 [GW282536X] | 21.7% | 20.9% | 20.2% | – | – | – | – | – | – | 1823 | 2013 | 1046 | – | – | – | – | – | No | -2.08 | -1.82 | z-scoreHeLa rep 2 (HeLa cells; [15]): -1.76; z-scoreHeLa rep 3 (HeLa cells; [16]): -2.65; effect (intracellular MRSA; Yes/No call from z-scoreMRSA+): No; hit (intracellular MRSA; [17]): No; z-scoreMRSA+ mean (intracellular MRSA; [18]): -0.62; z-scoreMRSA+ rep 1 (intracellular MRSA; [18]): -0.83; z-scoreMRSA+ rep 2 (intracellular MRSA; [18]): -0.42; z-scoreMRSA+ rep 3 (intracellular MRSA; [18]): -0.60 |
| COc1cc(Nc2nccc(N3CCC(NC(=O)C(C)c4ccc(Cl)cc4)C3)n2)cc(OC)c1OC (stereo not shown) [GSK1379757A] | 24.2% | 23.0% | 24.9% | 1.14 | 1.45 | 0.98 | 1.00 | No | No | 34106 | 27085 | 22729 | 0.57 | 0.66 | 0.31 | 0.74 | No | – | – | – | cell death (HeLa cells; [19]): No; z-scoreHeLa mean (HeLa cells; PKIS compound screen, mean of 3 replicates): 0.21; z-scoreHeLa rep 1 (HeLa cells; PKIS compound screen, replicate 1): 0.06; z-scoreHeLa rep 2 (HeLa cells; PKIS compound screen, replicate 2): 0.29; z-scoreHeLa rep 3 (HeLa cells; PKIS compound screen, replicate 3): 0.29; cell count rep 1 (HeLa cells; [20]): 6143; cell count rep 2 (HeLa cells; [21]): 6440; cell count rep 3 (HeLa cells; [22]): 6051; effect (intracellular MRSA; [19]): No; z-scoreMRSA+ mean (intracellular MRSA; PKIS compound screen): 0.73; z-scoreMRSA+ rep 1 (intracellular MRSA; PKIS compound screen): 0.77; z-scoreMRSA+ rep 2 (intracellular MRSA; PKIS compound screen): 0.76; z-scoreMRSA+ rep 3 (intracellular MRSA; PKIS compound screen): 0.65; %GFP+ rep 1 (intracellular MRSA; [23]): 31.0%; %GFP+ rep 2 (intracellular MRSA; [23]): 30.0%; %GFP+ rep 3 (intracellular MRSA; [23]): 30.8% |
| O=C(Nc1n[nH]c2cc(-c3cccs3)ccc12)C1CC1 [SB-731284] | 22.6% | 23.6% | 20.0% | – | – | – | – | – | – | 2848 | 2463 | 2761 | – | – | – | – | – | No | -1.36 | -1.08 | z-scoreHeLa rep 2 (HeLa cells; [15]): -1.41; z-scoreHeLa rep 3 (HeLa cells; [16]): -1.57; effect (intracellular MRSA; Yes/No call from z-scoreMRSA+): No; hit (intracellular MRSA; [17]): No; z-scoreMRSA+ mean (intracellular MRSA; [18]): -0.35; z-scoreMRSA+ rep 1 (intracellular MRSA; [18]): -0.62; z-scoreMRSA+ rep 2 (intracellular MRSA; [18]): 0.24; z-scoreMRSA+ rep 3 (intracellular MRSA; [18]): -0.66 |
| CC(C)S(=O)(=O)N1CCN(Cc2ccc3c(c2)nc(NC(=O)c2ccsc2)n3C[C@H](O)c2ccccc2)CC1 [GW635815X] | 12.8% | 14.2% | 14.5% | -1.62 | -1.60 | -1.42 | -1.84 | No | No | 31634 | 26865 | 24254 | 0.52 | 0.24 | 0.27 | 1.04 | No | – | – | – | – |
| CN(c1ccc2c(c1)nc(NCc1ccccc1)n2C)c1ccnc(Nc2ccc(CS(C)(=O)=O)cc2)n1 [GW811603A] | – | – | – | – | – | – | – | – | – | – | – | – | – | – | – | – | – | No | -0.46 | -0.28 | cell count rep 1 (HeLa cells; [20]): 3958; cell count rep 2 (HeLa cells; [21]): 3626; cell count rep 3 (HeLa cells; [22]): 4329; z-scoreHeLa rep 2 (HeLa cells; [15]): -0.52; z-scoreHeLa rep 3 (HeLa cells; [16]): -0.57; %GFP+ rep 1 (intracellular MRSA; [23]): 29.9%; %GFP+ rep 2 (intracellular MRSA; [23]): 27.8%; %GFP+ rep 3 (intracellular MRSA; [23]): 24.6%; effect (intracellular MRSA; Yes/No call from z-scoreMRSA+): No; hit (intracellular MRSA; [17]): No; z-scoreMRSA+ mean (intracellular MRSA; [18]): 1.02; z-scoreMRSA+ rep 1 (intracellular MRSA; [18]): 1.08; z-scoreMRSA+ rep 2 (intracellular MRSA; [18]): 1.26; z-scoreMRSA+ rep 3 (intracellular MRSA; [18]): 0.72 |
| Cc1cc(O)cc(C)c1/C=C/c1cncc(C(N)=O)c1 [GW435821X] | 14.7% | 15.8% | 16.5% | -0.94 | -1.00 | -0.82 | -1.00 | No | No | 9030 | 26110 | 32002 | -1.55 | -1.68 | -1.62 | -1.36 | No | – | – | – | – |
| Cc1ccnc2ccc(-c3sc(N)nc3-c3ccccn3)nc12 [GW777257X] | 20.9% | 19.0% | 19.9% | – | – | – | – | – | – | 3590 | 3185 | 3623 | – | – | – | – | – | No | -0.81 | -0.55 | z-scoreHeLa rep 2 (HeLa cells; [15]): -0.86; z-scoreHeLa rep 3 (HeLa cells; [16]): -1.02; effect (intracellular MRSA; Yes/No call from z-scoreMRSA+): No; hit (intracellular MRSA; [17]): No; z-scoreMRSA+ mean (intracellular MRSA; [18]): -0.86; z-scoreMRSA+ rep 1 (intracellular MRSA; [18]): -1.02; z-scoreMRSA+ rep 2 (intracellular MRSA; [18]): -0.88; z-scoreMRSA+ rep 3 (intracellular MRSA; [18]): -0.69 |
